Results on 2 substances are retold here after US20230233671A1, “RNA MOLECULES” (Pfizer Inc., priority 2021, published 2023).

Data set [1] has as its system VZV gE. Put plainly: ICS assay of gE peptide-stimulated splenocytes from LAV-experienced C57BL/6 mice. The class given is in vivo. The note with it: for IFN-γ+ CD4+ T cell: percentage within CD4+ T cells; for IFN-γ+ CD8+ T cell: percentage within CD8+ T cells; for gE-specific IFN-γ+ CD8+ T cell response induced or not: FIG. 26C; for gE-specific IFN-γ+ CD8+ T-cell response, increase after second/boost dose: FIG. 27B. An excerpt: Splenocytes were harvested from Balb/c mice on Day 34, (34 days after immunization, 6 days after boost) to assess gE-specific T cell responses induced. An Intracellular Cytokine Staining (ICS) assay was used to detect the presence of cytokines within CD4^+ or CD8^+ T cells following antigen peptide stimulation. ICS assay can detect multiple cytokines, including IFN-γ, produced in both CD4^+ and CD8^+ T cells following antigen peptide stimulation. During the ex vivo stimulation of splenocytes, reagents to block protein secretion are added to retain the synthesized cytokine to allow their detection by intracellular staining. Following stimulation, cells are stained for surface and intracellular markers to identify T cell types (CD3^+ cells for CD4 and CD8 T cells), activation markers (CD154/CD40L) and cytokines. CD4^+ T cells expressing IFN-γ, IL-2, TNFα and CD40L, and CD8^+ T cells expressing IFN-γ were assessed to evaluate gE-specific T cells.
2×10^6 splenocytes were stimulated with a 2 μg/mL gE peptide pool mix, a mix of 10 ng/ml phorbol myristate acetate (PMA) and 1 μg/mL ionomycin (positive control), or DMSO (negative control). BD GOLGISTOP™ and BD GOLGIPLUG™ were added to block protein secretion. Following incubation for 6 hours at 37° C., cells were stained for viability (10 min at 25° C.) and extracellular markers with directly labelled antibodies (20 min at 25° C.). Cells were fixed and permeabilized with BD CYTOFIX/CYTOPERM™ solution. Intracellular staining for cytokines (IFN-γ, IL-2, TNFα) and activation markers (CD154/CD40L) was performed in BD CYTOFIX/CYTOPERM™ solution (30 min at 25° C.). Cells were washed, resuspended in 2% FBS/PBS buffer and acquired on an LSRFORTESSA™. Data were analyzed by FlowJo 10.7.1. Results shown are background (media-DMSO) subtracted.
VZV RNA-LNP vaccines were tested for their ability to induce IgG and T cell responses in C57BL/6 mice. 15 mice per group were immunized in accordance with the schedule and specification in Table 11. Briefly, 10 or 15 mice per group were primed subcutaneously (SQ) on Day 0 with a live-attenuated varicella (LAV) vaccine (VARIVAX®, Merck) using a full human dose per mouse (1350 pfu), immunized intramuscularly (IM) on Day 35 day and boosted on Day 63. The “infection” with a LAV vaccine mimics exposure to VZV that humans receive when infected with VZV as children and develop chickenpox.
Mice immunized with SHINGRIX® received 1, 2.5, or 5 μg, corresponding to 1/50, 1/20, and 1/10 of the human clinical dose, respectively; mice immunized with gE_WT CO2 received 0.5 or 1 μg VZV RNA-LNP; mice immunized with ms5 CO1 received 0.5 or 1 ug VZV RNA-LNP; mice immunized with ms6 CO2 received 0.5 or 1 ug VZV RNA-LNP; and mice immunized with lyophilized gE_WT CO2 received 0.5 or 1 ug VZV RNA-LNP. Saline was administered on Day 35 and 63 to a negative control group. Sera was collected from mice on Day 35, 63 and 76 for characterization of VZV gE-binding IgG levels (LUMINEX® analyses). Spleens were harvested on Day 48 (13 days post dose 1 for selected groups) and Day 76 for cellular analysis (T cell and B cell responses).
Vaccine-induced T cell response was measured following ex vivo stimulation of splenocytes with gE peptide pool (2 μg/mL of each peptide) by ELISpot and Intracellular Cytokine Staining (ICS) assay (described herein). For ELISpot, the cytokine IFN-γ secreted by activated T cells were captured by an anti-IFN-γ antibody coated onto the polyvinylidene fluoride (PVDF) membrane of the well bottom on a microplate. The captured IFN-γ was developed into a spot by another non-competing biotinylated anti-IFN-γ secondary antibody followed by an enzymatic color reaction using streptavidin-alkaline phosphatase (ALP) conjugate and the substrate solution, nitro-blue tetrazolium and 5-bromo-4-chloro-3′-indolyphosphate (BCIP/NBT-plus) that yielded a dark purple precipitate or spot. […]

In data set [2] the test system is VZV gE. Put plainly: IFN-γ ELISpot of gE peptide-stimulated splenocytes from LAV-experienced C57BL/6 mice. It is filed as in vivo. The note with it: Day 48 (13 days post dose 1), 1 μg IM Day 35. The method, then: VZV RNA-LNP vaccines were tested for their ability to induce IgG and T cell responses in C57BL/6 mice. 15 mice per group were immunized in accordance with the schedule and specification in Table 11. Briefly, 10 or 15 mice per group were primed subcutaneously (SQ) on Day 0 with a live-attenuated varicella (LAV) vaccine (VARIVAX®, Merck) using a full human dose per mouse (1350 pfu), immunized intramuscularly (IM) on Day 35 day and boosted on Day 63. The “infection” with a LAV vaccine mimics exposure to VZV that humans receive when infected with VZV as children and develop chickenpox. […]
Vaccine-induced T cell response was measured following ex vivo stimulation of splenocytes with gE peptide pool (2 μg/mL of each peptide) by ELISpot and Intracellular Cytokine Staining (ICS) assay (described herein). […] T cell IFN-γ response was measured using Mabtech Mouse IFN-γ ELISpot PLUS kit (ALP) and expressed as spot forming cells (SFC) per million cells. The ICS assay measured IFN-γ-expressing cells within CD4^+ and CD8^+ T cells expressed as percentage of IFN-γ^+ cells within CD4^+ and CD8^+ T cells. […]

In another data set the test system is Vero cells. Put plainly: VZV gE expression and subcellular localization in Vero cells transfected with VZV RNA constructs (imaging). It is filed as cell-based, African green monkeys. The note with it: Table 8; VZV gE RNA, see Example 2. The method, then: Expression of VZV RNA constructs were tested in transfected Vero cells, a kidney epithelial cell culture line derived from African green monkeys. Seeded Vero cells were transfected for 24 hours at 37° C., 5% CO2 with 10 ng, 25 ng, or 50 ng of RNA constructs (Table 5) using MESSENGERMAX™ in accordance with the manufacturer's instructions. Cells were washed three times with PBS+Ca/Mg, and fixed in 4% paraformaldehyde (PFA) for 20 minutes at 25° C. Cells were washed twice with 3% bovine serum albumin (BSA) in PBS+Ca/Mg. Primary and secondary staining antibodies were diluted in 0.1% saponin in goat serum. Cells were stained with a 1:1000 dilution of primary antibody for 1 hour at 37° C., washed three times with PBS+Ca/Mg, and incubated with secondary antibody (1:500) and CELLMASK™ (1:140,000) for 45 minutes at 37° C. Cells were then stained with Dapi (1:15,000-1:20,000) for 15 minutes at 25° C., and washed three times with PBS+Ca/Mg. Cells were analyzed for VZV gE expression and subcellular localization using an Opera PHENIX® Plus High-Content Screening System at 10× or 63× magnification.

Setting [3] is: Day 48 (13 days post dose 1), 1 μg IM Day 35.
Setting [4] is: Day 76 (13 days post dose 2/boost), 1 μg IM Days 35 and 63.
The mark [5] stands for this setting: Day 76 (13 days post dose 2/boost).

As to “ms5 CO1: modRNA construct, ORF SEQ ID NO: 153, VZV gE with deletion of aa 582-623”, the “IFN-γ+ CD4+ T cell” value in the data set with VZV gE [1] (setting [3]) was found to be 0.47%; in the data set with VZV gE [1] (setting [4]) it was 0.48%. The “IFN-γ+ CD8+ T cell” value with VZV gE [1] (setting [3]) worked out at 0.05%; in the data set with VZV gE [1] (setting [4]), 0.28%. Further, the “gE-specific IFN-γ+ CD8+ T cell response induced or not” value in the data set with VZV gE [1] (Day 48 (13 days post dose 1)) is on record as “induced”. In the data set with VZV gE [1] (setting [5]), the “gE-specific IFN-γ+ CD8+ T-cell response, increase after second/boost dose” value is “robust increase”. In addition, the “gE-specific IFN-γ+ cells (ELISpot)” value in the data set with VZV gE [2] amounted to 1068 SFC per million cells. Further, in the data set on Vero cells, the “VZV RNA (Vero cells) MFI” value is 1368.

With “ms6 CO2: modRNA construct, ORF SEQ ID NO: 157, VZV gE with deletion of aa 539-623, secreted”, the “IFN-γ+ CD4+ T cell” value is 0.09% with VZV gE [1] (setting [3]) and 0.50% in the data set on VZV gE [1] (setting [4]). Besides, the “IFN-γ+ CD8+ T cell” value is listed as 0.16% in the data set on VZV gE [1] (setting [3]) and 0.21% in the data set on VZV gE [1] (setting [4]). Also, the “gE-specific IFN-γ+ CD8+ T cell response induced or not” value in the data set with VZV gE [1] (Day 48 (13 days post dose 1)) is recorded as “induced”. In the data set with VZV gE [1] (setting [5]), the “gE-specific IFN-γ+ CD8+ T-cell response, increase after second/boost dose” value is listed as “robust increase”. Besides, the “gE-specific IFN-γ+ cells (ELISpot)” value in the data set on VZV gE [2] stood at 150 SFC per million cells. The “VZV RNA (Vero cells) MFI” value with Vero cells was 458.
